The test system of test [1] is MCF7 cells. The test can be described thus: Cell synchronization study, antiproliferative effect on synchronized cells. Format: cell-based. The protocol: (§1) Cell synchronization and tubulin study: The antiproliferative effect of the compound it was tested on MCF7 cells which were synchronized at specific phases of the cell cycle. […] One way of inhibiting cell proliferation in G2/M phase is by altering equilibrium between polymerization and depolymerization of microtubule proteins which is required for active mitotic cell division.

The subject of test [2] is MCF-7 cells. The test can be described thus: Cell cycle analysis (propidium iodide, flow cytometry). The conditions noted are these: after 16, 24, 48, and 72 hours of treatment. Format: cell-based. The protocol:
Apoptosis studies: The molecular effect of compound it was evaluated by investigating its apoptotic (FIG. 5) and cell cycle arresting potentials (FIGS. 6A and 6B). Compound it arrests the cells at G0/G1 phase in MCF-7 cells (>15%) with respect to control cells after 16, 24, 48, and 72 hours of treatment.
Cell cycle arresting potentials of compound it were analyzed by an already established protocol with minor modifications. In brief, 3×10^6 cells of MCF-7, SKBR3, and HCT116 were seeded and incubated overnight in a T75 cm^2 flask before treating with IC50 dose of compound it for […]. The cells which were devoid of any treatments served as controls for each group. After respective treatment hours, the cells were washed two times with PBS and fixed with ice cold ethanol (70%) overnight. The cells were then washed two times with cold PBS and 1×10^6 cells were then counted and incubated with 1 ml RNAase (100 μg/mL) for 30 min at 37° C. The cell pellet was further added with 200 μl of propidium iodide (50 μg/mL) and immediately analyzed by a flow cytometer (BD, Accuri C6).

The test system of test [3] is C-Myc oncogenic protein. The test can be described thus: Western blot, C-Myc expression. Format: cell-based. The conditions noted are these: all the tested cell lines. The protocol: Over-expression of this oncogene could result in tumor cell proliferation and migration and therefore its inhibition may halt tumor growth. Other pro-apoptotic (Bid, Bax, caspase-3 & -9) and anti-apoptotic (Bcl-xL) proteins were also modulated by compound it as evident from western blot analysis and as confirmed by annexin V study (FIG. 7).
The MCF-7, SKBR3 and HCT116 total cell lysate were prepared after 24 hours of treatment with compound it at IC50 and DIC50 doses by using 1× laemmli buffer. Total protein concentration was then estimated for each sample and 15-30 μg of protein lysate were loaded equally on 12% SDS-PAGE gel in order to detect various proteins expression levels. In short, the membrane was incubated with different primary antibodies (as mentioned in above section) (1:1000) overnight after blocking with 5% non-fat milk solution for 1 hour. The membrane was then re-probed with respective mouse/rabbit secondary antibodies (1:2000) for 1 h, and later developed by enhanced chemiluminescence (ECL) method by using a Chemidoc MP (BioRad, Germany).

In test [4] the test system is tubulin. Briefly: Tubulin polymerization / microtubule formation (immunofluorescence and kit method). Type of test: cell-based. Particulars: in comparison to colchicine and taxol (positive controls); FIGS. 4A and 4B. The procedure:
as §1
An immunofluorescence method is used for detecting tubulin polymerization effect of compound 1t. The cells (5×10^4/well) were plated overnight on coverslips on a six well plate and treated with IC50 concentration of compound 1t, taxol and colchicine for 24 hours. After treatment, the cells were rinsed twice with PBS, fixed with 3.7% paraformaldehyde, and permeabilized with 0.1% Triton X-100. The cells were then blocked with 1% BSA in PBS for 1 hour before further incubation with anti-p-tubulin mouse monoclonal antibody overnight at 4° C. (Cell Signaling, San Francisco, CA). […]
Tubulin polymerization was measured in vitro using the Tubulin Polymerization Assay kit (Cytoskeleton, Denver, CO). […] The polymerization of tubulin was monitored as fluorescence at 37° C. for 60 min, and the reading speed was programmed at 1 cycle/min with excitation and emission wavelengths of 360 and 450 nm, respectively, using the Varioskan® Flash spectral scanning multimode reader (Thermo Fisher Scientific™). […]

In test [5] the target is T1, transketolase (Homo sapiens, UniProt P29401).
T1 construct: HEK293T cells were lysed using M-PER; endogenous in cells; host or cells: HEK293T lysate
Briefly: DARTS proteomic assay. Format: binding. The conditions noted are these: dose-dependent manner, FIG. 10. The source says:
(§2) The unique properties of compound it prompted an in-depth analysis to explore its potential novel targets.
As TKT reaction plays a pivotal role in pentose phosphate pathway, inhibition of TKT will suppress the pentose phosphate pathway and interrupt the synthesis of coenzymes, ATP, CoA, NAD(P)+, FAD, RNA, and DNA in cancer cells. The over-expressed TKT is reported in many cancer cells, tissues, and patients, wherein it regulates proliferation and viability. A strategy of silencing TKT has shown significant effect in reducing tumor burden in gastric cancer cells. Recent studies have shown that targeting TKT has clinical relevance in cancer therapy, as it can counteract the effect of oxidative stress, a critical factor in cancer development.
A DARTS assay was used to assess the binding of compound 1t. HEK293T cells were lysed using M-PER (Thermo Scientific, Inc.) supplemented with protease and phosphatase inhibitors (Lysis buffer). 4.7 mg/mL of protein and TNC buffer (10 mM Tris, 140 mMNaCl, 5 mM CaCl2)) was added, compound it was diluted in DMSO to 3 different concentrations (0.01 μM, 0.1 μM, 1 μM) and incubated for one hour at room temperature. Trypsin (Promega) was added and incubated for 3 hours at 37° C. Thereafter, M-PER lysis buffer was added and the samples were concentrated with Microcon 10K centrifugal filters. […]

Test [6] deals with T2, inositol-3-phosphate synthase (Homo sapiens, UniProt Q9NPH2).
T2 construct: HEK293T cells were lysed using M-PER; endogenous in cells; host or cells: HEK293T lysate
The test can be described thus: DARTS proteomic assay. Type of test: binding.
From the text: as §2
(§3) Similarly, deregulated inositol metabolism has been observed in a number of diseases, including cancer, where inositol modulates different critical pathways in disease progression. Moreover, it is expressed consistently in bipolar disorders and Alzheimer's diseases. […] Likewise, the role of glutathione reductase is well known in cancer progression and chemoresistance. The equilibrium between the glutathione disulphide ratio is critical not only in cancer progression but also in increased oxidative stress which can lead to other disorders.
(§4) A DARTS assay was used to assess the binding of compound 1t. HEK293T cells were lysed using M-PER (Thermo Scientific, Inc.) supplemented with protease and phosphatase inhibitors (Lysis buffer). 4.7 mg/mL of protein and TNC buffer (10 mM Tris, 140 mMNaCl, 5 mM CaCl2)) was added, compound it was diluted in DMSO to 3 different concentrations (0.01 μM, 0.1 μM, 1 μM) and incubated for one hour at room temperature. Trypsin (Promega) was added and incubated for 3 hours at 37° C. Thereafter, M-PER lysis buffer was added and the samples were concentrated with Microcon 10K centrifugal filters. The proteins were identified by gel electrophoresis liquid chromatography mass spectroscopy (GelLCMS).

The target in test [7] is T3, transferrin receptor proteins (Homo sapiens, UniProt P02786).
T3 construct: HEK293T cells were lysed using M-PER; endogenous in cells; host or cells: HEK293T lysate
Briefly: DARTS proteomic assay. Type of test: binding.
From the text: as §2, §3, §4

T2 sequence (Q9NPH2 whole entry): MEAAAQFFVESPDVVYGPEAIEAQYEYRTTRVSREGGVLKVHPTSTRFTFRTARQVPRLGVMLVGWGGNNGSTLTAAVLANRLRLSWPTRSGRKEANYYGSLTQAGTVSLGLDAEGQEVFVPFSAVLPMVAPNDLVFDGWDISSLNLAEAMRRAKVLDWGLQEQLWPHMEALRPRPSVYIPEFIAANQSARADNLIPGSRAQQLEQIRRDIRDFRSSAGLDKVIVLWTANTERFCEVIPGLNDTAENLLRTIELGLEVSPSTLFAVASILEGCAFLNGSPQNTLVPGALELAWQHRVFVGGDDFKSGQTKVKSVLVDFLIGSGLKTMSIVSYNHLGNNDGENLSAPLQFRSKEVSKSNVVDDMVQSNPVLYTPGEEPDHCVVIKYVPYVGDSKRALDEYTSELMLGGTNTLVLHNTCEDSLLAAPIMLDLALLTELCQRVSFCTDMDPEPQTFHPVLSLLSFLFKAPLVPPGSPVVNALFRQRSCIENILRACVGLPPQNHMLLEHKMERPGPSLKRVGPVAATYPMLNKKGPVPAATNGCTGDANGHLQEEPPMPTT
T1 sequence (P29401 whole entry): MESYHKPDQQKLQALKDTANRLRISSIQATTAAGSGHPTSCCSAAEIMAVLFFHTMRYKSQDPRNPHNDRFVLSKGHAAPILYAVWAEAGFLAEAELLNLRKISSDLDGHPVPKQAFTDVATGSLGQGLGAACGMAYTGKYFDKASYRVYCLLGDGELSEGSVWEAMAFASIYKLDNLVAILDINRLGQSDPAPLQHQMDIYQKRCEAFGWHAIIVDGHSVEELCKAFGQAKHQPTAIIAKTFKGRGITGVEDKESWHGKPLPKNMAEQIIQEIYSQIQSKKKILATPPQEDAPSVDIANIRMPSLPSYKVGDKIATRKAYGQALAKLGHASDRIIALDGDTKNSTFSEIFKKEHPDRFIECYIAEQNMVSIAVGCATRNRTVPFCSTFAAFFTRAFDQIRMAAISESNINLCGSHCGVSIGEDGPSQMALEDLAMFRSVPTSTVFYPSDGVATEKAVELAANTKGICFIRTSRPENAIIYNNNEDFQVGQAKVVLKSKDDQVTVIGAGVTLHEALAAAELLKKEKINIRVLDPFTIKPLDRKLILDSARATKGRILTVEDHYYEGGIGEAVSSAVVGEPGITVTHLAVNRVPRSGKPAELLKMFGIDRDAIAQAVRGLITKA
T3 sequence (P02786 whole entry): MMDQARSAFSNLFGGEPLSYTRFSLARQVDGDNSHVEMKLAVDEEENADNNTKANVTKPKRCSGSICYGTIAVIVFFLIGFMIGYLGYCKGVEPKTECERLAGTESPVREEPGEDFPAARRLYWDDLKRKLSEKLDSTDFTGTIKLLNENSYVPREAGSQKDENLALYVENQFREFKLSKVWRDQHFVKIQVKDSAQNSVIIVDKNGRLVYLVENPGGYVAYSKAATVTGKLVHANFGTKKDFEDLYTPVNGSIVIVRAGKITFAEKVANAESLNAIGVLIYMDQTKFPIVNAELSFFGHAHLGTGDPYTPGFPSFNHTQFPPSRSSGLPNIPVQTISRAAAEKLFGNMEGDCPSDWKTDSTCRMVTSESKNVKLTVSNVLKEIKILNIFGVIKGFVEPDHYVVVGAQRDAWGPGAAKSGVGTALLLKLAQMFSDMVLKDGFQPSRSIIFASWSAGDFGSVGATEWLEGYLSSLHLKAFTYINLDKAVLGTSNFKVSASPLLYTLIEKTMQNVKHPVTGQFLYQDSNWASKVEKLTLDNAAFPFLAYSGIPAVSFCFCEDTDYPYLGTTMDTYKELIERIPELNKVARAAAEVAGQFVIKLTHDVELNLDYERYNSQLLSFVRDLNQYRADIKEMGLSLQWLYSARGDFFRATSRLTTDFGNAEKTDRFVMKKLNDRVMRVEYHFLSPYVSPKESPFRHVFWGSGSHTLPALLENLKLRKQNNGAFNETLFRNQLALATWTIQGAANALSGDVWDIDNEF

Turning to `CC1(C)[C@H]2COc3ccc4ccccc4c3[C@H]2N=C2SC(c3ccccc3)=C(c3ccccc3)N21` [Compound 1t], in test [1] (MCF7 cells synchronized at specific phases of the cell cycle), the “Sensitivity of G2/M-arrested cells versus asynchronous cells” value is on record as “more sensitive”. For the same compound, in test [1] (synchronized MCF7 cells), the “Cells arrested at G2/M phase” value came out at 18.5%. The “Cells arrested at G0/G1 phase with respect to control cells” value in test [2] is greater than 15%. Moreover, in test [3], the C-Myc oncogenic protein entry is reported as “inhibited”. In addition, the “Inhibition of microtubule formation” value in test [4] was “strong inhibition”. Further, the Affinity on transketolase entry in test [5] is reported as “strong affinity”. Further, in test [6], the “Affinity to bind inositol-3-phosphate synthase” value is recorded as “dose-dependent affinity”. In test [7], the “Affinity to transferrin receptors” value is recorded as “higher affinity”.

Source of the values: patent publication US12157745B2, “Heterocyclic systems and pharmaceutical compositions thereof” (University of Sharjah, priority 2018, dated 2024).
